Experimental data from patent publication US6489313B1, “Memory by the administration of Δ5-androstene-3β-ol-7,17-dione and 3β esters” (Humanetics Corporation, priority 1998, dated 2002).

Columns and labels:
Aged, two year old mice = experiment: Morris water maze procedure, aged mice; format: in vivo; details: two weeks after treatment, DHEA 20 mg/kg or equimolar amount, control 36 seconds
Method: Aged, two year old mice were tested in the Morris water maze procedure by training the mice to locate the pedestal in less than 15 seconds in three consecutive trials. Immediately upon completion of training one group of mice was treated with DHEA (20 mg/kg) and a second group treated with an eqimolar amount of Δ5-Androstene-3β-acetyl-7,17-dione. Two weeks after treatment the time to rescue was timed in the Morris water maze procedure at: Control 36 seconds, DHEA 27 seconds, and Δ5-Androstene-3β-acetyl-7,17-dione 13 seconds.

C57BL76 mice = experiment: Morris water maze procedure, scopolamine-induced amnesia; format: in vivo
Method: Groups of 13 to 16 C57BL76 mice (35 gm) were tested in the Morris. water maze procedure by training the mice to locate the pedestal in less than 15 seconds in three consecutive trials. Immediately upon completion of training the mice in each of three groups were treated with scopolamine (1 mg/kg), scopolamine+DHEA, or scopolamine+Δ5-Androstene-3β-acetyl-7,17-dione.

[1] = C57BL76 mice (35 gm), scopolamine 1 mg/kg alone or with the steroid, six days after treatment, control 12.2±1.8

SMILES	time to rescue in the Morris water maze procedure (Aged, two year old mice) [s]	average time to rescue in the Morris water maze procedure (C57BL76 mice; mouse, in vivo) [s]	average time to rescue in the Morris water maze procedure (C57BL76 mice; [1]) [s]
C[C@]12CC[C@H](O)CC1=CC[C@@H]1[C@@H]2CC[C@]2(C)C(=O)CC[C@@H]12 [DHEA, dehydroepiandrosterone]	27	9.7 ± 1.6	–
CC(=O)O[C@H]1CC[C@@]2(C)C(=CC(=O)[C@@H]3[C@@H]2CC[C@]2(C)C(=O)CC[C@@H]32)C1 [Δ5-Androstene-3β-acetyl-7,17-dione]	13	–	8.3 ± 1.8
CN1[C@@H]2C[C@@H](OC(=O)[C@H](CO)c3ccccc3)C[C@H]1[C@@H]1O[C@@H]12 [scopolamine]	–	–	20.0 ± 3.6
